One test deals with T1, COQ7 (His6-GB1-Nd38COQ7) (Homo sapiens, UniProt Q99807).
T1 sequence (Q99807 39-217): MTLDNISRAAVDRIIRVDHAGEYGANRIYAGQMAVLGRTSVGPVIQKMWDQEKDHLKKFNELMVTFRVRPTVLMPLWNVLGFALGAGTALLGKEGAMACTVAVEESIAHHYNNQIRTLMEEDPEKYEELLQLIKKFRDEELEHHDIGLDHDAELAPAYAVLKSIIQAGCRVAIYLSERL
As to the kind of experiment: NADH fluorescence loss. In kind it is biochemical. Particulars: 250 uM DMQ0, 5 uM protein, 20 mM HEPES pH 7.6, 200 mM NaCl, 30 °C.

Test [1] addresses T2, His6-Nd79COQ9 (human COQ9 residues 79-318 with an N-terminal His tag) (human, UniProt O75208 79-318).
T2 sequence (looked up): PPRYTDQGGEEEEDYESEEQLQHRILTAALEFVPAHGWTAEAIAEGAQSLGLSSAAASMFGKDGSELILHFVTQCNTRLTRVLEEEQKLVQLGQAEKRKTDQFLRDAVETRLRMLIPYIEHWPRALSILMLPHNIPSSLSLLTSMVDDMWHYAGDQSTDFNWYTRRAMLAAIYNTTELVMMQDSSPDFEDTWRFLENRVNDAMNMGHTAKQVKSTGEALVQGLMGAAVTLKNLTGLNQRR
As to the kind of experiment: SEC + native gel or EMSA. In general terms: Mobility shift assays separate free from complexed probe on a gel.

This note sets out measurements from PMC10058641 (Molecular cell, 2022).

A word on the stoichiometry N: it is a count of units in the complex or per binding partner.

`NC(=O)C1=CN([C@@H]2O[C@H](COP(=O)(O)OP(=O)(O)OC[C@H]3O[C@@H](n4cnc5c(N)ncnc54)[C@H](O)[C@@H]3O)[C@@H](O)[C@H]2O)C=CC1` [NADH]: the NADH oxidation result on COQ7 (His6-GB1-Nd38COQ7) was “wild type COQ7 slowly oxidized NADH and transferred electrons to a quinone acceptor”.

B1: GB1-Nd38COQ7 (human COQ7 residues 39-217 with N-terminal GB1 tag) (enzyme, UniProt Q99807 39-217, looked up)
chain: MTLDNISRAAVDRIIRVDHAGEYGANRIYAGQMAVLGRTSVGPVIQKMWDQEKDHLKKFNELMVTFRVRPTVLMPLWNVLGFALGAGTALLGKEGAMACTVAVEESIAHHYNNQIRTLMEEDPEKYEELLQLIKKFRDEELEHHDIGLDHDAELAPAYAVLKSIIQAGCRVAIYLSERL
Regarding B1, the “stoichiometry N” value in test [1] was found to be 1.
